In PubChem BioAssay (NCI):
Where “and” joins values, the source holds several entries; their conditions need not be identical. Equal values may be shown once.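 Protocol summary: plate cells (96-well), add compound at 5 concentrations, incubate 48 h, interpolate endpoints linearly. The concentration for 50% growth inhibition is given as GI50. TGI marks complete inhibition of growth.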

How the values were obtained:
Assay in all cases: NCI-60 cell line screen, 48 h
LXFL 529 NSCLC = tested on: LXFL 529 NSCLC
DMS 114 small cell lung = tested on: DMS 114 small cell lung
HOP-18 NSCLC = tested on: HOP-18 NSCLC
M19-MEL melanoma = tested on: M19-MEL melanoma
KM20L2 colon = tested on: KM20L2 colon
RPMI-8226 leukemia = tested on: RPMI-8226 leukemia
DLD-1 colon = tested on: DLD-1 colon
DMS 273 small cell lung = tested on: DMS 273 small cell lung
SNB-78 CNS = tested on: SNB-78 CNS
HL-60(TB) leukemia = tested on: HL-60(TB) leukemia
XF 498 CNS = tested on: XF 498 CNS

Cc1ccccc1NC(=O)CSc1nnc(Cc2ccccc2)o1
TGI (LXFL 529 NSCLC): > 100 µM | TGI (DMS 114 small cell lung): > 100 µM | TGI (HOP-18 NSCLC): > 100 µM | TGI (M19-MEL melanoma): > 100 µM | TGI (KM20L2 colon): > 100 µM | TGI (RPMI-8226 leukemia): > 100 µM | TGI (DLD-1 colon): > 100 µM | TGI (DMS 273 small cell lung): > 100 µM | TGI (SNB-78 CNS): > 100 µM

COc1ccc(/C=C(\Cl)c2ccc(OC)cc2)cc1
TGI (LXFL 529 NSCLC): > 100 µM | TGI (DMS 114 small cell lung): > 100 µM | TGI (M19-MEL melanoma): > 100 µM | TGI (KM20L2 colon): > 100 µM | TGI (RPMI-8226 leukemia): > 100 µM | TGI (HL-60(TB) leukemia): > 100 µM | TGI (DLD-1 colon): > 100 µM | TGI (DMS 273 small cell lung): > 100 µM

CN(C)Cc1[nH]c2ccccc2c1C(=O)c1ccccc1
TGI (LXFL 529 NSCLC): > 100 µM | TGI (XF 498 CNS): > 100 µM | TGI (KM20L2 colon): > 100 µM | TGI (RPMI-8226 leukemia): > 100 µM | TGI (HL-60(TB) leukemia): > 100 µM | TGI (DLD-1 colon): > 100 µM | TGI (DMS 273 small cell lung): > 100 µM

CC1(C)N=C(Oc2ccccc2)n2nccc2N1
TGI (LXFL 529 NSCLC): > 100 µM | TGI (DMS 114 small cell lung): > 100 µM | TGI (HOP-18 NSCLC): > 100 µM | TGI (M19-MEL melanoma): > 100 µM | TGI (XF 498 CNS): > 100 µM | TGI (KM20L2 colon): > 100 µM | TGI (RPMI-8226 leukemia): > 100 µM | TGI (HL-60(TB) leukemia): > 100 µM | TGI (DLD-1 colon): > 100 µM | TGI (DMS 273 small cell lung): > 100 µM

O=C1Cc2ccccc2CCc2ccsc21
TGI (LXFL 529 NSCLC): > 100 µM | TGI (HOP-18 NSCLC): > 100 µM | TGI (M19-MEL melanoma): > 100 µM | TGI (XF 498 CNS): > 100 µM | TGI (KM20L2 colon): > 100 µM | TGI (RPMI-8226 leukemia): > 100 µM | TGI (HL-60(TB) leukemia): > 100 µM | TGI (DLD-1 colon): > 100 µM | TGI (DMS 273 small cell lung): > 100 µM | TGI (SNB-78 CNS): > 100 µM

COc1nc(OC)nc(Sc2ccc(Sc3ccc(Sc4nc(OC)nc(OC)n4)cc3)cc2)n1
TGI (LXFL 529 NSCLC): > 100 µM | TGI (DMS 114 small cell lung): > 100 µM | TGI (HOP-18 NSCLC): > 100 µM | TGI (M19-MEL melanoma): > 100 µM | TGI (XF 498 CNS): > 100 µM | TGI (KM20L2 colon): > 100 µM | TGI (RPMI-8226 leukemia): > 100 µM | TGI (HL-60(TB) leukemia): > 100 µM | TGI (DLD-1 colon): > 100 µM | TGI (DMS 273 small cell lung): > 100 µM | TGI (SNB-78 CNS): > 100 µM

CC#Cc1c(C#CC)c(OC)c2c(c1OC)C(=O)c1ccccc1C2=O
TGI (LXFL 529 NSCLC): > 100 µM | TGI (DMS 114 small cell lung): 89 µM | TGI (M19-MEL melanoma): > 100 µM | TGI (XF 498 CNS): > 100 µM | TGI (KM20L2 colon): > 100 µM | TGI (RPMI-8226 leukemia): > 100 µM | TGI (HL-60(TB) leukemia): > 100 µM | TGI (DLD-1 colon): > 100 µM | TGI (DMS 273 small cell lung): > 100 µM

Cc1ccc(F)c2c(=O)cc(-c3ccccc3)[nH]c12
TGI (LXFL 529 NSCLC): > 100 µM | TGI (DMS 114 small cell lung): > 100 µM | TGI (HOP-18 NSCLC): > 100 µM | TGI (M19-MEL melanoma): > 100 µM | TGI (RPMI-8226 leukemia): > 100 µM | TGI (HL-60(TB) leukemia): > 100 µM | TGI (DLD-1 colon): > 100 µM | TGI (DMS 273 small cell lung): > 100 µM

O=C1c2ccccc2C(=O)c2c(O)c(NCCNCCO)cc(O)c21
TGI (LXFL 529 NSCLC): 18.1 µM | TGI (DMS 114 small cell lung): 16.1 µM | TGI (HOP-18 NSCLC): 18.8 µM | TGI (M19-MEL melanoma): 15.2 µM | TGI (XF 498 CNS): 19 µM | TGI (KM20L2 colon): 16.1 µM | TGI (RPMI-8226 leukemia): 21.4 µM | TGI (HL-60(TB) leukemia): 14.1 µM | TGI (DLD-1 colon): 11.1 µM | TGI (DMS 273 small cell lung): 12 µM | TGI (SNB-78 CNS): 18.7 µM

Cc1cc(Cl)ccc1NC(=O)C(=O)Cc1occc(=O)c1O
TGI (LXFL 529 NSCLC): > 100 µM | TGI (DMS 114 small cell lung): > 100 µM | TGI (HOP-18 NSCLC): > 100 µM | TGI (M19-MEL melanoma): > 100 µM | TGI (XF 498 CNS): > 100 µM | TGI (KM20L2 colon): > 100 µM | TGI (RPMI-8226 leukemia): > 100 µM | TGI (HL-60(TB) leukemia): > 100 µM | TGI (DLD-1 colon): > 100 µM | TGI (DMS 273 small cell lung): > 100 µM | TGI (SNB-78 CNS): > 100 µM

CCCOP(=S)(N1CC1)N1CC1
TGI (DMS 114 small cell lung): > 100 µM | TGI (HOP-18 NSCLC): > 100 µM | TGI (M19-MEL melanoma): > 100 µM | TGI (XF 498 CNS): > 100 µM | TGI (KM20L2 colon): > 100 µM | TGI (RPMI-8226 leukemia): > 100 µM | TGI (HL-60(TB) leukemia): > 100 µM | TGI (DLD-1 colon): > 100 µM | TGI (DMS 273 small cell lung): > 100 µM | TGI (SNB-78 CNS): > 100 µM

C(=N/NC1=NCCN1)/c1c2ccccc2c(/C=N\NC2=NCCN2)c2ccccc12
GI50 (DMS 114 small cell lung): 0.0491 µM and 0.0606 µM | TGI (DMS 114 small cell lung): 0.603 µM and 0.421 µM | GI50 (HOP-18 NSCLC): 0.282 µM | TGI (HOP-18 NSCLC): 0.888 µM and 1.5 µM | GI50 (M19-MEL melanoma): 0.0605 µM | TGI (M19-MEL melanoma): 0.355 µM and 0.258 µM | GI50 (XF 498 CNS): 0.0524 µM | TGI (XF 498 CNS): 0.372 µM and 0.298 µM | GI50 (KM20L2 colon): 0.0553 µM | TGI (KM20L2 colon): 2.16 µM and 1.22 µM | TGI (RPMI-8226 leukemia): 0.798 µM and 2.11 µM and 1.26 µM | TGI (HL-60(TB) leukemia): 1.13 µM and 2.33 µM and 0.725 µM | GI50 (DLD-1 colon): 1.32 µM | TGI (DLD-1 colon): 27.9 µM and 250 µM | GI50 (DMS 273 small cell lung): 0.0504 µM | GI50 (SNB-78 CNS): 0.368 µM | TGI (SNB-78 CNS): 3.83 µM and 9.8 µM

Cc1nc2nn(C)cc2c(=O)n1/N=C/c1ccccc1
TGI (DMS 114 small cell lung): > 100 µM | TGI (HOP-18 NSCLC): > 100 µM | TGI (M19-MEL melanoma): > 100 µM | TGI (XF 498 CNS): > 100 µM | TGI (KM20L2 colon): > 100 µM | TGI (RPMI-8226 leukemia): > 100 µM | TGI (HL-60(TB) leukemia): > 100 µM | TGI (DLD-1 colon): > 100 µM | TGI (DMS 273 small cell lung): > 100 µM | TGI (SNB-78 CNS): > 100 µM

Oc1ccc(Cn2c(-c3ccc(O)cc3)nc3ccccc32)cc1
TGI (LXFL 529 NSCLC): > 100 µM | TGI (DMS 114 small cell lung): > 100 µM | TGI (M19-MEL melanoma): > 100 µM | TGI (XF 498 CNS): > 100 µM | TGI (KM20L2 colon): > 100 µM | TGI (RPMI-8226 leukemia): > 100 µM | TGI (HL-60(TB) leukemia): > 31.6 µM | TGI (DLD-1 colon): > 100 µM | TGI (DMS 273 small cell lung): > 100 µM

COc1ccc(C2C(Cl)C(=O)N2NC(=O)c2ccccc2O)cc1OC (configuration not stated)
TGI (DMS 114 small cell lung): > 100 µM | TGI (M19-MEL melanoma): > 100 µM | TGI (XF 498 CNS): 47.7 µM | TGI (HL-60(TB) leukemia): > 100 µM | TGI (DLD-1 colon): > 100 µM | TGI (DMS 273 small cell lung): > 100 µM | TGI (SNB-78 CNS): > 100 µM

CCCc1cc(-c2ccc(-c3cc(CCC)c(C=O)[nH]3)s2)[nH]c1C=O
TGI (LXFL 529 NSCLC): > 100 µM | TGI (DMS 114 small cell lung): 65 µM | TGI (HOP-18 NSCLC): > 100 µM | TGI (M19-MEL melanoma): > 100 µM | TGI (XF 498 CNS): > 100 µM | TGI (RPMI-8226 leukemia): > 100 µM | TGI (HL-60(TB) leukemia): > 48.8 µM | TGI (DLD-1 colon): > 100 µM | TGI (DMS 273 small cell lung): > 100 µM | TGI (SNB-78 CNS): > 100 µM

CC(C)c1cccc(C(C)C)c1NC(=O)C(=O)C1SC(=S)NC1=O (configuration not stated)
TGI (LXFL 529 NSCLC): > 100 µM | TGI (HOP-18 NSCLC): > 100 µM | TGI (M19-MEL melanoma): > 100 µM | TGI (XF 498 CNS): > 100 µM | TGI (KM20L2 colon): > 100 µM | TGI (RPMI-8226 leukemia): > 100 µM | TGI (HL-60(TB) leukemia): > 100 µM | TGI (DLD-1 colon): > 100 µM | TGI (DMS 273 small cell lung): > 100 µM | TGI (SNB-78 CNS): > 100 µM
